According to ChEMBL document CHEMBL1201862, “PubChem BioAssay data set” (2004):
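Five concentrations, 48 hours, 96-well plates. Abbreviation: GI50, concentration required for 50% inhibition of growth.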 Activity calls are given as the source filed them. No stated cut-off is given here; in the data, active = GI50 up to about 1.1 µM and inactive = higher.

Key:
Experiment in all cases: growth of human tumour cells (NCI), 48 h
786-0 = system: 786-0
A498 = system: A498
A549 = system: A549
ACHN = system: ACHN
BT-549 = system: BT-549
CAKI-1 = system: CAKI-1
CCRF-CEM = system: CCRF-CEM
COLO 205 = system: COLO 205
DU-145 = system: DU-145
EKVX = system: EKVX
HCC 2998 = system: HCC 2998
HCT-116 = system: HCT-116
HCT-15 = system: HCT-15
HL-60 = system: HL-60
HOP-62 = system: HOP-62
HOP-92 = system: HOP-92
HT-29 = system: HT-29
Hs-578T = system: Hs-578T
IGROV-1 = system: IGROV-1
KM12 = system: KM12
LOX IMVI = system: LOX IMVI
M14 = system: M14
MCF7 = system: MCF7
MDA-MB-231 = system: MDA-MB-231
MDA-MB-435 = system: MDA-MB-435
MDA-N = system: MDA-N
MOLT-4 = system: MOLT-4
Malme-3M = system: Malme-3M
NCI-H226 = system: NCI-H226
NCI-H23 = system: NCI-H23
NCI-H460 = system: NCI-H460
NCI-H522 = system: NCI-H522
NCI/ADR-RES = system: NCI/ADR-RES
OVCAR-3 = system: OVCAR-3
OVCAR-4 = system: OVCAR-4
OVCAR-5 = system: OVCAR-5
OVCAR-8 = system: OVCAR-8
PC-3 = system: PC-3
RPMI-8226 = system: RPMI-8226
RXF 393 = system: RXF 393
SF-268 = system: SF-268
SF-295 = system: SF-295
SF-539 = system: SF-539
SK-MEL-28 = system: SK-MEL-28
SK-MEL-2 = system: SK-MEL-2
SK-MEL-5 = system: SK-MEL-5
SK-OV-3 = system: SK-OV-3
SN12C = system: SN12C
SNB-19 = system: SNB-19
SNB-75 = system: SNB-75
SW-620 = system: SW-620
T47D = system: T47D
TK-10 = system: TK-10
U-251 = system: U-251
UACC-257 = system: UACC-257
UACC-62 = system: UACC-62
UO-31 = system: UO-31
K562 = system: K562
SR = system: SR

NC(=O)C/C=C/CC(N)=O
GI50 (786-0): > 100 µM (inactive) | GI50 (A498): > 100 µM (inactive) | GI50 (A549): > 100 µM (inactive) | GI50 (ACHN): > 100 µM (inactive) | GI50 (BT-549): > 100 µM (inactive) | GI50 (CAKI-1): > 100 µM (inactive) | GI50 (CCRF-CEM): > 100 µM (inactive) | GI50 (COLO 205): > 100 µM (inactive) | GI50 (DU-145): > 100 µM (inactive) | GI50 (EKVX): > 100 µM (inactive) | GI50 (HCC 2998): > 100 µM (inactive) | GI50 (HCT-116): > 100 µM (inactive) | GI50 (HCT-15): > 100 µM | GI50 (HL-60): > 100 µM (inactive) | GI50 (HOP-62): > 100 µM (inactive) | GI50 (HOP-92): > 100 µM (inactive) | GI50 (HT-29): > 100 µM (inactive) | GI50 (Hs-578T): > 100 µM (inactive) | GI50 (IGROV-1): > 100 µM (inactive) | GI50 (KM12): > 100 µM (inactive) | GI50 (LOX IMVI): > 100 µM (inactive) | GI50 (M14): > 100 µM (inactive) | GI50 (MCF7): > 100 µM (inactive) | GI50 (MDA-MB-231): > 100 µM (inactive) | GI50 (MDA-MB-435): > 100 µM (inactive) | GI50 (MDA-N): > 100 µM (inactive) | GI50 (MOLT-4): 0.259 µM (active) | GI50 (Malme-3M): > 100 µM (inactive) | GI50 (NCI-H226): > 100 µM (inactive) | GI50 (NCI-H23): > 100 µM (inactive) | GI50 (NCI-H460): > 100 µM (inactive) | GI50 (NCI-H522): > 100 µM (inactive) | GI50 (NCI/ADR-RES): > 100 µM (inactive) | GI50 (OVCAR-3): > 100 µM (inactive) | GI50 (OVCAR-4): > 100 µM (inactive) | GI50 (OVCAR-5): > 100 µM (inactive) | GI50 (OVCAR-8): > 100 µM (inactive) | GI50 (PC-3): > 100 µM (inactive) | GI50 (RPMI-8226): > 100 µM (inactive) | GI50 (RXF 393): > 100 µM (inactive) | GI50 (SF-268): > 100 µM (inactive) | GI50 (SF-295): > 100 µM (inactive) | GI50 (SF-539): > 100 µM (inactive) | GI50 (SK-MEL-28): > 100 µM (inactive) | GI50 (SK-MEL-2): > 100 µM (inactive) | GI50 (SK-MEL-5): > 100 µM (inactive) | GI50 (SK-OV-3): > 100 µM (inactive) | GI50 (SN12C): > 100 µM (inactive) | GI50 (SNB-19): > 100 µM (inactive) | GI50 (SNB-75): > 100 µM (inactive) | GI50 (SW-620): > 100 µM (inactive) | GI50 (T47D): > 100 µM (inactive) | GI50 (TK-10): > 100 µM (inactive) | GI50 (U-251): > 100 µM (inactive) | GI50 (UACC-257): > 100 µM (inactive) | GI50 (UACC-62): > 100 µM (inactive) | GI50 (UO-31): > 100 µM (inactive)

CC(=O)Oc1ccc2c(c1)O/C(=C\c1ccc(O)cc1)C2=O
GI50 (786-0): > 100 µM (inactive) | GI50 (A549): > 100 µM (inactive) | GI50 (ACHN): > 100 µM (inactive) | GI50 (BT-549): > 100 µM (inactive) | GI50 (CAKI-1): > 100 µM (inactive) | GI50 (CCRF-CEM): > 100 µM (inactive) | GI50 (COLO 205): > 100 µM (inactive) | GI50 (DU-145): > 100 µM (inactive) | GI50 (EKVX): > 100 µM (inactive) | GI50 (HCC 2998): > 100 µM (inactive) | GI50 (HCT-116): > 100 µM (inactive) | GI50 (HCT-15): > 100 µM | GI50 (HL-60): > 100 µM (inactive) | GI50 (HOP-62): > 100 µM (inactive) | GI50 (Hs-578T): 27.5 µM (inactive) | GI50 (IGROV-1): > 100 µM (inactive) | GI50 (K562): > 100 µM (inactive) | GI50 (KM12): > 100 µM (inactive) | GI50 (M14): > 100 µM (inactive) | GI50 (MCF7): > 100 µM (inactive) | GI50 (MDA-MB-231): > 100 µM (inactive) | GI50 (MDA-MB-435): > 100 µM (inactive) | GI50 (MDA-N): > 100 µM (inactive) | GI50 (MOLT-4): > 100 µM (inactive) | GI50 (NCI-H226): > 100 µM (inactive) | GI50 (NCI-H23): > 100 µM (inactive) | GI50 (NCI-H460): > 100 µM (inactive) | GI50 (NCI-H522): 28.4 µM (inactive) | GI50 (NCI/ADR-RES): > 100 µM (inactive) | GI50 (OVCAR-3): > 100 µM (inactive) | GI50 (OVCAR-4): > 100 µM (inactive) | GI50 (OVCAR-8): > 100 µM (inactive) | GI50 (PC-3): > 100 µM (inactive) | GI50 (RPMI-8226): > 100 µM (inactive) | GI50 (RXF 393): > 100 µM (inactive) | GI50 (SF-268): > 100 µM (inactive) | GI50 (SF-295): > 100 µM (inactive) | GI50 (SF-539): > 100 µM (inactive) | GI50 (SK-MEL-28): > 100 µM (inactive) | GI50 (SK-MEL-5): > 100 µM (inactive) | GI50 (SK-OV-3): > 100 µM (inactive) | GI50 (SN12C): > 100 µM (inactive) | GI50 (SNB-19): > 100 µM (inactive) | GI50 (SNB-75): > 100 µM (inactive) | GI50 (SR): > 100 µM (inactive) | GI50 (SW-620): > 100 µM (inactive) | GI50 (T47D): > 100 µM (inactive) | GI50 (TK-10): > 100 µM (inactive) | GI50 (U-251): > 100 µM (inactive) | GI50 (UACC-257): > 100 µM (inactive) | GI50 (UACC-62): > 100 µM (inactive) | GI50 (UO-31): > 100 µM (inactive)
